# Laboratory results from PubChem BioAssay AID1259407 (Chemical Carcinogenesis Research Information System (CCRIS), 2018).
# Calls of active or inactive are those of the source. No rule for the calls is given here.
# Test system: CCRIS mutagenicity, Ames/micronucleus/aberration tests
# Experiment: CCRIS mutagenicity studies
# [1] = Test System: AMES SALMONELLA TYPHIMURIUM, Strain/Indicator: TA98, Metabolic Activation: NONE, Method: STANDARD PLATE
# [2] = Test System: AMES SALMONELLA TYPHIMURIUM, Strain/Indicator: TA100, Metabolic Activation: NONE, Method: STANDARD PLATE
# [3] = Test System: AMES SALMONELLA TYPHIMURIUM, Strain/Indicator: TA1538, Metabolic Activation: NONE, Method: STANDARD PLATE
# [4] = Test System: AMES SALMONELLA TYPHIMURIUM, Strain/Indicator: TA1535, Metabolic Activation: NONE, Method: STANDARD PLATE
smiles,measurement,setting,value
Nc1cc2[nH]c3ccccc3c2cc1[N+](=O)[O-],mutagenic call,[1],inactive; negative
same,mutagenic call,"Test System: AMES SALMONELLA TYPHIMURIUM, Strain/Indicator: TA98, Metabolic Activation: RAT, LIVER, S-9, PHENOBARBITAL, Method: STANDARD PLATE",active; positive
same,mutagenic call,[2],inactive; negative
same,mutagenic call,"Test System: AMES SALMONELLA TYPHIMURIUM, Strain/Indicator: TA100, Metabolic Activation: RAT, LIVER, S-9, PHENOBARBITAL, Method: STANDARD PLATE",active; positive
same,mutagenic call,"Test System: AMES SALMONELLA TYPHIMURIUM, Strain/Indicator: TA1537, Metabolic Activation: NONE, Method: STANDARD PLATE",inactive; negative
same,mutagenic call,"Test System: AMES SALMONELLA TYPHIMURIUM, Strain/Indicator: TA1537, Metabolic Activation: RAT, LIVER, S-9, PHENOBARBITAL, Method: STANDARD PLATE",active; positive
same,mutagenic call,[3],inactive; negative
same,mutagenic call,"Test System: AMES SALMONELLA TYPHIMURIUM, Strain/Indicator: TA1538, Metabolic Activation: RAT, LIVER, S-9, PHENOBARBITAL, Method: STANDARD PLATE",active; positive
same,mutagenic call,"Test System: AMES SALMONELLA TYPHIMURIUM, Strain/Indicator: TA1977, Metabolic Activation: NONE, Method: STANDARD PLATE",inactive; negative
same,mutagenic call,"Test System: AMES SALMONELLA TYPHIMURIUM, Strain/Indicator: TA1977, Metabolic Activation: RAT, LIVER, S-9, PHENOBARBITAL, Method: STANDARD PLATE",inactive; negative
Nc1cc(Cl)nc(C(=O)O)c1Cl,mutagenic call,"End Point: In vitro chromosomal aberrations, Test System: Primary rat lymphocytes, Metabolic Activation: Rodent S-9",inactive; negative
same,mutagenic call,"Test System: Ames Salmonella typhimurium, Strain/Indicator: TA98, Metabolic Activation: None, Method: Preincubation",inactive; negative; purity 94.5%
same,mutagenic call,"Test System: Ames Salmonella typhimurium, Strain/Indicator: TA98, Metabolic Activation: Rat, Liver, S-9, Aroclor 1254, Method: Preincubation",inactive; negative; purity 94.5%
same,mutagenic call,"Test System: Ames Salmonella typhimurium, Strain/Indicator: TA100, Metabolic Activation: None, Method: Preincubation",inactive; negative; purity 94.5%
same,mutagenic call,"Test System: Ames Salmonella typhimurium, Strain/Indicator: TA100, Metabolic Activation: Rat, Liver, S-9, Aroclor 1254, Method: Preincubation",inactive; negative; purity 94.5%
same,mutagenic call,"Test System: Ames Salmonella typhimurium, Strain/Indicator: TA1535, Metabolic Activation: None, Method: Preincubation",inactive; negative; purity 94.5%
same,mutagenic call,"Test System: Ames Salmonella typhimurium, Strain/Indicator: TA1535, Metabolic Activation: Rat, Liver, S-9, Aroclor 1254, Method: Preincubation",inactive; negative; purity 94.5%
same,mutagenic call,"Test System: Ames Salmonella typhimurium, Strain/Indicator: TA1537, Metabolic Activation: None, Method: Preincubation",inactive; negative; purity 94.5%
same,mutagenic call,"Test System: Ames Salmonella typhimurium, Strain/Indicator: TA1537, Metabolic Activation: Rat, Liver, S-9, Aroclor 1254, Method: Preincubation",inactive; negative; purity 94.5%
same,mutagenic call,"Test System: Chinese hamster ovary cells, Strain/Indicator: CHO-K1-BH4/HGPRT, Metabolic Activation: None, Method: Forward mutation assay",inactive; negative
same,mutagenic call,"Test System: Chinese hamster ovary cells, Strain/Indicator: CHO-K1-BH4/HGPRT, Metabolic Activation: Rat, Liver, S-9, Aroclor 1254, Method: Forward mutation assay",inactive; negative; purity 94.5%
same,mutagenic call,"Test System: E. coli, Strain/Indicator: WP2 UVR A, Metabolic Activation: None, Method: Preincubation",inactive; negative
same,mutagenic call,"Test System: E. coli, Strain/Indicator: WP2 UVRA, Metabolic Activation: Rat, Liver, S-9, Aroclor 1254, Method: Preincubation",inactive; negative
O=C(O)[C@@H]1Cc2c([nH]c3ccccc23)[C@H]([C@H]2CCNC2=S)N1,mutagenic call,"Test System: AMES SALMONELLA TYPHIMURIUM, Strain/Indicator: TA98, Metabolic Activation: NONE",inactive; negative
same,mutagenic call,"Test System: AMES SALMONELLA TYPHIMURIUM, Strain/Indicator: TA98, Metabolic Activation: S-9",inactive; negative
same,mutagenic call,"Test System: AMES SALMONELLA TYPHIMURIUM, Strain/Indicator: TA100, Metabolic Activation: NONE",inactive; negative
same,mutagenic call,"Test System: AMES SALMONELLA TYPHIMURIUM, Strain/Indicator: TA100, Metabolic Activation: S-9",inactive; negative
CCCCOC(=O)c1ccccc1C(=O)OCCCC,mutagenic call,"Test System: AMES SALMONELLA TYPHIMURIUM, Strain/Indicator: TA98, Metabolic Activation: HAMSTER, LIVER, S-9, AROCLOR 1254 (10%), Method: PREINCUBATION",inactive; negative
same,mutagenic call,"Test System: AMES SALMONELLA TYPHIMURIUM, Strain/Indicator: TA98, Metabolic Activation: NONE, Method: PREINCUBATION",inactive; negative
same,mutagenic call,"Test System: AMES SALMONELLA TYPHIMURIUM, Strain/Indicator: TA98, Metabolic Activation: RAT, LIVER, S-9, AROCLOR 1254 (10%), Method: PREINCUBATION",inactive; negative
same,mutagenic call,"Test System: AMES SALMONELLA TYPHIMURIUM, Strain/Indicator: TA100, Metabolic Activation: HAMSTER, LIVER, S-9, AROCLOR 1254 (10%), Method: PREINCUBATION",inactive; negative
same,mutagenic call,"Test System: AMES SALMONELLA TYPHIMURIUM, Strain/Indicator: TA100, Metabolic Activation: NONE, Method: PREINCUBATION",inactive; negative
same,mutagenic call,[2],active; positive
same,mutagenic call,"Test System: AMES SALMONELLA TYPHIMURIUM, Strain/Indicator: TA100, Metabolic Activation: RAT, LIVER, S-9, AROCLOR 1254 (10%), Method: PREINCUBATION",inactive; negative
same,mutagenic call,"Test System: AMES SALMONELLA TYPHIMURIUM, Strain/Indicator: TA100, Metabolic Activation: S-9, Method: STANDARD PLATE",inactive; negative
same,mutagenic call,"Test System: AMES SALMONELLA TYPHIMURIUM, Strain/Indicator: TA1535, Metabolic Activation: HAMSTER, LIVER, S-9, AROCLOR 1254 (10%), Method: PREINCUBATION",inactive; negative
same,mutagenic call,"Test System: AMES SALMONELLA TYPHIMURIUM, Strain/Indicator: TA1535, Metabolic Activation: NONE, Method: PREINCUBATION",inactive; negative
same,mutagenic call,[4],inactive; negative
same,mutagenic call,"Test System: AMES SALMONELLA TYPHIMURIUM, Strain/Indicator: TA1535, Metabolic Activation: RAT, LIVER, S-9, AROCLOR 1254 (10%), Method: PREINCUBATION",inactive; negative
same,mutagenic call,"Test System: AMES SALMONELLA TYPHIMURIUM, Strain/Indicator: TA1535, Metabolic Activation: S-9, Method: STANDARD PLATE",inactive; negative
same,mutagenic call,"Test System: AMES SALMONELLA TYPHIMURIUM, Strain/Indicator: TA1537, Metabolic Activation: HAMSTER, LIVER, S-9, AROCLOR 1254 (10%), Method: PREINCUBATION",inactive; negative
same,mutagenic call,"Test System: AMES SALMONELLA TYPHIMURIUM, Strain/Indicator: TA1537, Metabolic Activation: NONE, Method: PREINCUBATION",inactive; negative
same,mutagenic call,"Test System: AMES SALMONELLA TYPHIMURIUM, Strain/Indicator: TA1537, Metabolic Activation: RAT, LIVER, S-9, AROCLOR 1254 (10%), Method: PREINCUBATION",inactive; negative
same,mutagenic call,"Test System: MOUSE LYMPHOMA, Strain/Indicator: L5178Y (TK+/TK-), Metabolic Activation: NONE, Method: SUSPENSION/PLATE",inactive; negative
same,mutagenic call,"Test System: MOUSE LYMPHOMA, Strain/Indicator: L5178Y (TK+/TK-), Metabolic Activation: RAT LIVER S-9, Method: SUSPENSION/PLATE",active; positive
CC(F)(F)F,mutagenic call,"Test System: AMES SALMONELLA TYPHIMURIUM, Strain/Indicator: TA97, Metabolic Activation: NONE, Method: STANDARD PLATE",inactive; negative
same,mutagenic call,"Test System: AMES SALMONELLA TYPHIMURIUM, Strain/Indicator: TA97, Metabolic Activation: RAT, LIVER, S-9, AROCLOR 1254, Method: STANDARD PLATE",inactive; negative
same,mutagenic call,[1],inactive; negative
same,mutagenic call,"Test System: AMES SALMONELLA TYPHIMURIUM, Strain/Indicator: TA98, Metabolic Activation: RAT, LIVER, S-9, AROCLOR 1254, Method: STANDARD PLATE",inactive; negative
same,mutagenic call,[2],inactive; negative
same,mutagenic call,"Test System: AMES SALMONELLA TYPHIMURIUM, Strain/Indicator: TA100, Metabolic Activation: RAT, LIVER, S-9, AROCLOR 1254, Method: STANDARD PLATE",inactive; negative
same,mutagenic call,[4],inactive; negative
same,mutagenic call,"Test System: AMES SALMONELLA TYPHIMURIUM, Strain/Indicator: TA1535, Metabolic Activation: RAT, LIVER, S-9, AROCLOR 1254, Method: STANDARD PLATE",inactive; negative
same,mutagenic call,[3],inactive; negative
same,mutagenic call,"Test System: AMES SALMONELLA TYPHIMURIUM, Strain/Indicator: TA1538, Metabolic Activation: RAT, LIVER, S-9, AROCLOR 1254, Method: STANDARD PLATE",inactive; negative
same,mutagenic call,"Test System: E. COLI, Strain/Indicator: WP2 UVRA (PKM101), Metabolic Activation: NONE, Method: STANDARD PLATE",inactive; negative
same,mutagenic call,"Test System: E. COLI, Strain/Indicator: WP2 UVRA (PKM101), Metabolic Activation: RAT, LIVER, S-9, AROCLOR 1254, Method: STANDARD PLATE",inactive; negative
